Test results from ChEMBL document CHEMBL1146731, “Design, synthesis, and structure-activity relationships of pyrazolo[3,4-d]pyrimidines: a novel class of potent enterovirus inhibitors” (Bioorg Med Chem Lett, 2004).

Columns and labels:
[1] = system: Coxsackievirus; assay: Inhibitory concentration of compound against formation of Coxsackievirus B5 plaque in plaque reduction assay; assay type: functional, organism-based
[2] = system: Influenza B virus; assay: Inhibitory concentration of compound against formation of Influenza A virus (HK) plaque in plaque reduction assay; assay type: functional, organism-based
[3] = system: Human rhinovirus sp.; assay: Inhibitory concentration of compound against formation of Human rhinovirus 2 plaque in plaque reduction assay; assay type: functional, organism-based
[4] = system: Coxsackievirus; assay: Inhibitory concentration of compound against formation of Coxsackievirus A16 plaque in plaque reduction assay; assay type: functional, organism-based
[5] = system: Echovirus; assay: Inhibitory concentration of compound against formation of Echovirus 9 virus plaque in plaque reduction assay; assay type: functional, organism-based
[6] = system: Coxsackievirus; assay: Inhibitory concentration of compound against formation of Coxsackievirus B3 plaque in plaque reduction assay; assay type: functional, organism-based
[7] = system: Influenza A virus; assay: Inhibitory concentration of compound against formation of Influenza A virus (WSN) plaque in plaque reduction assay; assay type: functional, organism-based
[8] = system: Coxsackievirus; assay: Inhibitory concentration of compound against formation of Coxsackievirus B1 plaque in plaque reduction assay; assay type: functional, organism-based
[9] = system: Coxsackievirus; assay: Inhibitory concentration of compound against formation of Coxsackievirus B6 plaque in plaque reduction assay; assay type: functional, organism-based
[10] = system: Human rhinovirus sp.; assay: Inhibitory concentration of compound against formation of Human rhinovirus 14 plaque in plaque reduction assay; assay type: functional, organism-based
[11] = system: Human alphaherpesvirus 1; assay: Inhibitory concentration of compound against formation of Herpes simplex virus 1 plaque in plaque reduction assay
[12] = system: Echovirus; assay: Inhibitory concentration of compound against formation of Echovirus 29 virus plaque in plaque reduction assay; assay type: functional, organism-based
[13] = system: Coxsackievirus; assay: Inhibitory concentration of compound against formation of Coxsackievirus B4 plaque in plaque reduction assay; assay type: functional, organism-based
[14] = system: Coxsackievirus; assay: Inhibitory concentration to prevent formation of Coxsackievirus B3 (CVB3) plaques; assay type: functional, organism-based
[15] = system: Enterovirus; assay: Inhibitory concentration to prevent formation of Enterovirus (EV 71) plaques; assay type: functional, organism-based
[16] = system: Rhabdomyosarcoma cell; assay: Cytotoxic effect of compound towards human Rhabdomyosarcoma cell line was evaluated; assay type: functional, cell-based
[17] = system: Coxsackievirus; assay: Inhibitory concentration of compound against formation of Coxsackievirus A9 plaque in plaque reduction assay; assay type: functional, organism-based
[18] = system: Coxsackievirus; assay: Inhibitory concentration of compound against formation of Coxsackievirus B2 plaque in plaque reduction assay; assay type: functional, organism-based
[19] = system: Enterovirus; assay: Inhibitory concentration of compound against formation of Enterovirus 68 (EV 68) plaque in plaque reduction assay; assay type: functional, organism-based
[20] = system: Enterovirus; assay: Inhibitory concentration of compound against formation of Enterovirus 71 (2231) genotype C plaque in plaque reduction assay; assay type: functional, organism-based
[21] = system: Enterovirus; assay: Inhibitory concentration of compound against formation of Enterovirus 71 (1743) genotype B plaque in plaque reduction assay; assay type: functional, organism-based
[22] = system: Enterovirus; assay: Inhibitory concentration of compound against formation of Enterovirus 71 (BrCr) genotype A plaque in plaque reduction assay; assay type: functional, organism-based
[23] = system: Coxsackievirus; assay: Inhibitory concentration of compound against formation of Coxsackievirus A24 plaque in plaque reduction assay; assay type: functional, organism-based
[24] = system: Coxsackievirus; assay: Inhibitory concentration of compound against formation of Coxsackievirus A10 plaque in plaque reduction assay; assay type: functional, organism-based

## O=C1N(CCCCCCOc2ccc(Br)cc2)CCN1c1ccncc1
[1]
  IC50: > 25000 nM
[2]
  IC50: > 25 µM
[3]
  IC50: > 25 µM
[4]
  IC50: > 25000 nM
[5]
  IC50: 2820 nM
[6]
  IC50: > 25000 nM
[7]
  IC50: > 25 µM
[8]
  IC50: > 25000 nM
[9]
  IC50: > 25000 nM
[10]
  IC50: 11.6 µM
[11]
  IC50: > 25 µM
[12]
  IC50: > 25 µM
[13]
  IC50: > 25000 nM

## Cc1ccsc1C(c1c(C)noc1C)N1CCN(c2ncnc3c2cnn3-c2ccccc2)CC1 (stereo unspecified)
[14]
  IC50: 81 nM
[15]
  IC50: 650 nM
[16]
  IC50: > 25 µM

## c1ccc(C(c2nccs2)N2CCN(c3ncnc4c3cnn4-c3ccccc3)CC2)cc1 (stereo unspecified)
[14]
  IC50: 110 nM
[15]
  IC50: 340 nM
[16]
  IC50: > 25 µM

## Clc1ccc(C(c2ccccc2)N2CCN(c3ncnc4c3cnn4-c3ccccc3)CC2)cc1 (stereo unspecified)
[14]
  IC50: 260 nM
[15]
  IC50: 1970 nM
[16]
  IC50: > 25 µM

## FC(F)(F)c1ccc(C(c2ccccc2)N2CCN(c3ncnc4c3cnn4-c3ccccc3)CC2)cc1 (stereo unspecified)
[14]
  IC50: 300 nM
[15]
  IC50: 1650 nM
[16]
  IC50: > 25 µM

## c1ccc(-c2ccc(C(c3ccccc3)N3CCN(c4ncnc5c4cnn5-c4ccccc4)CC3)cc2)cc1 (stereo unspecified)
[14]
  IC50: 310 nM
[15]
  IC50: 1900 nM
[16]
  IC50: > 25 µM

## Brc1ccc(C(c2ccccc2)N2CCN(c3ncnc4c3cnn4-c3ccccc3)CC2)cc1 (stereo unspecified)
[14]
  IC50: 490 nM
[15]
  IC50: 910 nM
[16]
  IC50: > 25 µM

## c1ccc(C(c2ccco2)N2CCN(c3ncnc4c3cnn4-c3ccccc3)CC2)cc1 (stereo unspecified)
[14]
  IC50: 270 nM
[15]
  IC50: 1250 nM
[16]
  IC50: > 25 µM

## c1ccc(Cn2ncc3c(N4CCN(C(c5ccccc5)c5ccccc5)CC4)ncnc32)cc1
[14]
  IC50: > 25000 nM
[15]
  IC50: > 25000 nM
[16]
  IC50: > 25 µM

## Cc1ccsc1C(c1ccccc1)N1CCN(c2ncnc3c2cnn3-c2ccccc2)CC1 (stereo unspecified)
[14]
  IC50: 89 nM
[15]
  IC50: 460 nM
[16]
  IC50: > 25 µM

## c1ccc(C(c2ccccn2)N2CCN(c3ncnc4c3cnn4-c3ccccc3)CC2)cc1 (stereo unspecified)
[14]
  IC50: 170 nM
[15]
  IC50: 370 nM
[16]
  IC50: > 25 µM

## CCCn1ncc2c(N3CCN(C(c4ccccc4)c4ccccc4)CC3)ncnc21
[14]
  IC50: > 25000 nM
[15]
  IC50: > 25000 nM
[16]
  IC50: > 25 µM

## Cc1ccccc1C(c1ccccc1)N1CCN(c2ncnc3c2cnn3-c2ccccc2)CC1 (stereo unspecified)
[14]
  IC50: 310 nM
[15]
  IC50: 1980 nM
[16]
  IC50: > 25 µM

## c1ccc(C(c2cccnc2)N2CCN(c3ncnc4c3cnn4-c3ccccc3)CC2)cc1 (stereo unspecified)
[14]
  IC50: 530 nM
[15]
  IC50: 4600 nM
[16]
  IC50: > 25 µM

## CCn1ncc2c(N3CCN(C(c4ccccc4)c4ccccc4)CC3)ncnc21
[14]
  IC50: > 25000 nM
[15]
  IC50: > 25000 nM
[16]
  IC50: > 25 µM

## Cc1ccsc1C(c1ccccc1Br)N1CCN(c2ncnc3c2cnn3-c2ccccc2)CC1 (stereo unspecified)
[14]
  IC50: 72 nM
[15]
  IC50: 320 nM
[16]
  IC50: > 25 µM

## Cc1ccsc1C(c1ccccn1)N1CCN(c2ncnc3c2cnn3-c2ccccc2)CC1 (stereo unspecified)
[14]
  IC50: 63 nM
[15]
  IC50: 360 nM
[16]
  IC50: > 25 µM

## c1ccc(C(c2ccncc2)N2CCN(c3ncnc4c3cnn4-c3ccccc3)CC2)cc1 (stereo unspecified)
[14]
  IC50: 300 nM
[15]
  IC50: 780 nM
[16]
  IC50: > 25 µM

## c1ccc(C(c2ccccc2)N2CCN(c3ncnc4c3cnn4-c3ccccc3)CC2)cc1
[1]
  IC50: 440 nM
[17]
  IC50: 260 nM
[18]
  IC50: 80 nM
[2]
  IC50: > 25 µM
[3]
  IC50: > 25 µM
[4]
  IC50: 230 nM
[14]
  IC50: 150 nM
[19]
  IC50: 180 nM
[5]
  IC50: 300 nM
[20]
  IC50: 520 nM
[6]
  IC50: 150 nM
[15]
  IC50: 410 nM
[7]
  IC50: > 25 µM
[16]
  IC50: > 25 µM
[21]
  IC50: 470 nM
[8]; Coxsackievirus
  IC50: 690 nM
[9]
  IC50: 940 nM
[10]
  IC50: > 25 µM
[22]
  IC50: 350 nM
[11]
  IC50: > 25 µM
[23]
  IC50: 50 nM
[24]
  IC50: 390 nM
[12]
  IC50: > 25 µM
[13]
  IC50: 160 nM

## Cn1ncc2c(N3CCN(C(c4ccccc4)c4ccccc4)CC3)ncnc21
[14]
  IC50: > 25000 nM
[15]
  IC50: > 25000 nM
[16]
  IC50: > 25 µM

## Cc1noc(C)c1C(c1ccccc1)N1CCN(c2ncnc3c2cnn3-c2ccccc2)CC1 (stereo unspecified)
[14]
  IC50: 95 nM
[15]
  IC50: 580 nM
[16]
  IC50: > 25 µM

## Cc1ccccc1C(c1sccc1C)N1CCN(c2ncnc3c2cnn3-c2ccccc2)CC1 (stereo unspecified)
[14]
  IC50: 84 nM
[15]
  IC50: 410 nM
[16]
  IC50: > 25 µM

## N#Cc1cccc(C(c2ccccc2)N2CCN(c3ncnc4c3cnn4-c3ccccc3)CC2)c1 (stereo unspecified)
[14]
  IC50: 110 nM
[15]
  IC50: 780 nM
[16]
  IC50: > 25 µM

## c1ccc(C(c2ccccc2)N2CCN(c3[nH]cnc4nncc3-4)CC2)cc1
[14]
  IC50: > 25000 nM
[15]
  IC50: > 25000 nM
[16]
  IC50: > 25 µM

## N#Cc1ccc(C(c2ccccc2)N2CCN(c3ncnc4c3cnn4-c3ccccc3)CC2)cc1 (stereo unspecified)
[14]
  IC50: 180 nM
[15]
  IC50: 940 nM
[16]
  IC50: > 25 µM
